Results: article PMC11645656, “MRGPRX4 mediates phospho-drug associated pruritus in a humanized mouse model” (Science translational medicine, 2024)
Where “and” joins values, the source holds several entries; their conditions need not be identical. Equal values may be shown once.

Key:
[1] = target: T1, MRGPRX4 WT (S83) (Homo sapiens, UniProt Q96LA9, L83S); assay: PRESTO-Tango β-arrestin recruitment assay, HTLA cells stably expressing WT (S83) MRGPRX4; format: cell-based; design: expressed in transfected cells; conditions: for PRESTO-Tango response (fig. S1), single replicate: HTLA::MRGPRX4; for fig. S7 response (raw signal), concentration-response: WT, single replicate
T1 sequence (Q96LA9 whole entry L83S, the tested form may be a part): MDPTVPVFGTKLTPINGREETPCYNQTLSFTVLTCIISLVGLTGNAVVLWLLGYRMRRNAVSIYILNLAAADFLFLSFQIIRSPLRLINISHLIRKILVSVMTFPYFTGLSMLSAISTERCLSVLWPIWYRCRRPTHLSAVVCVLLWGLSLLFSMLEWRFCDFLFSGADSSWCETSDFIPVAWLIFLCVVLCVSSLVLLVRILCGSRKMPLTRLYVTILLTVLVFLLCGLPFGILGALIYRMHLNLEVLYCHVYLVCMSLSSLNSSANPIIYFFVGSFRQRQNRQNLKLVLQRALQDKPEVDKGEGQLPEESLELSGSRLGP
Procedure: HTLA cells, a cell line derived from HEK293 and engineered to stably express a tTA-dependent luciferase reporter and a β-arrestin2-TEV fusion gene, were generously provided by Richard Axel's laboratory. HTLA cells were cultured in growth medium containing 2 μg/ml puromycin and 100 μg/ml hygromycin B in 5% CO2 at 37 °C. Stably MRGPRX4-expressing HTLA cells were generated by transfecting pcDNA3.1(+)-Zeo containing MRGPRX4-Tango construct (either with WT or S83L mutant sequence) into HTLA cells with Lipofectamine 3000 and selecting the successful transfected clones with Zeocin.
HTLA cells stably expressing either WT or S83L MRGPRX4 were seeded in PDL-coated 96-well white clear bottom cell culture plates with DMEM containing 10% FBS, at a density of 35,000 cells per well and were allowed to attach to the bottom of the wells overnight. The next day, growth medium was replaced with 100 μl of serum-free medium containing the tested drugs at various concentrations, and the cells were then incubated at 37°C for 24 h. On the following day, media with drug solutions was removed and 50 μl per well of Bright-Glo™ Reagent from Bright-Glo™ Luciferase Assay System (Promega) was loaded. The plate was incubated at room temperature in the dark for 5 min, and the relative luminescence units were measured using the Flexstation-3 instrument with SoftMax®Pro 7.1 software (Molecular Devices). Dose response curves and EC50s were analyzed as described above.
Data are from at least two independent experiments, each performed in
triplicate, and are depicted as mean ± SEM.
arrestin2-TEV fusion gene and a tTA -dependent luciferase reporter.

[2] = target: T1, MRGPRX4 WT (S83); assay: Calcium mobilization assay (FLIPR), WT (S83) MRGPRX4 transiently expressed in HEK293T cells; format: cell-based; design: expressed in transfected cells; host or cells: HEK293T, transient; conditions: for Calcium mobilization response (Fig. 4D dose-response) / calcium mobilization response (Fig. 3E and 3F dose-response): WT; for Calcium mobilization response (Fig. 4D dose-response): each cell one replicate
Source text: Fig. 4. […] Hydrogen bond is shown as cyan dashed lines. […] Data are from three independent experiments, performed in triplicate. (E) pEC50 plots of various agonists toward S83- and L83-MRGPRX4 through calcium mobilization assay. […] Each data point represents an independent experiment, performed in triplicate. The extra sum-of-square F test was used to examine the difference in EC50 values. One-sided t-test was used for nateglinide. *p< 0.05, **p< 0.01 and ***p< 0.001. ns = no statistical significance. Both (D) and (E) are reported as the mean ± SEM. N.D.= no detectable response ≤ 100 μM.
HEK293 cells and MRGPRX4 stably expressed HEK293 cells were seeded in 100 μl culture media on 96-well plates at a density of 40,000 cells per well and incubated overnight. The next day, the media were replaced with a dye-loading solution from the FLIPR Calcium 5 assay kit (Molecular Devices), diluted in Hank's Balanced Salt Solution (HBSS) with 20 mM HEPES, pH 7.4. After 1 h of incubation at 37°C, cells were allowed to recover for 10 min in the dark at room temperature prior to performing intracellular calcium mobilization assay in a Flexstation-3 instrument with SoftMax®Pro 7.1 software (Molecular Devices). Serial concentrations of tested drugs were prepared in HBSS/HEPES solution at 3X concentration. […] Compounds were tested in triplicates and the signals were averaged. Responses were determined by subtracting the minimum signal (at the baseline before adding the drug) from the maximum signal (obtained after drug stimulation). Four-parameter logistic (4PL) curve fit was used to plot the dose-response curves. […] Both dose-response curve fitting and EC50s calculation are computed with GraphPad Prism software (version: 6.o or above).
To generate murine Mrgprs expressing cells, HEK293T cells (ATCC) were seeded on poly-D-lysine coated 96 well plate at 25,000 cells per well one day prior to transfection. HEK293T cells were transiently co-transfected with the mammalian expression plasmids carrying cDNA encoding the murine Mrgpr genes and plasmid inserted with cDNA encoding murine α-subunit of the heterotrimeric G15 protein (Gα15) in triplicates using Lipofectamine LTX reagents (Thermo Scientific). To generate WT, S83L, and alanine mutant MRGPRX4-expressing cells, HEK293T cells were seeded on poly-D-lysine coated 384 well plate at 12,000 cells per well one day prior to transfection. Mammalian expression plasmids pLX304 (vector from Addgene) carrying different MRGPRX4 coding sequences were transiently transfected into HEK293T cells in triplicates with Lipofectamine LTX reagents (Thermo Scientific). Intracellular calcium mobilization assays were performed after one day of transfection. Murine Mrgprs tested include Mrgpra1, Mrgpra2a, Mrgpra2b, Mrgpra3, Mrgpra4, Mrgpra6, Mrgpra9, Mrgpra10, Mrgpra11, Mrgpra12, Mrgpra14, Mrgprb5, Mrgprb6, Mrgprb10, Mrgprb11, and Mrgprc11. WT and mutant MRGPRX4 constructs tested include WT, S83L, R82A, R86A, R95A, W158A, Y250A, and Y254A.

[3] = system: WT NP1-3 DRG neurons; assay: GCaMP6s calcium imaging of NP1-3 DRG neurons from Pirt-Cre; Rosa-lsl-GCaMP6s mice; format: cell-based, mouse; conditions: 10 µM
Procedure: Murine DRGs (from both male and female) were harvested from all spinal segments and digested in dispase (5 mg/ml) / type I collagenase (1 mg/ml) enzyme mix at 37 °C for an hour. Enzyme mix was replaced with complete DH10 media (90% DMEM/F12, 10% FBS, penicillin (100 units/ml), and streptomycin (100 μg/ml)) and gently triturated with 1 ml pipette tip until the media turned cloudy without visible tissue chunks. Dissociated tissues were filtered through a 70 μm filter and spun down 1250 rpm for 5 min at RT. Supernatant was removed and the cell pellet was resuspended in complete DH10 media. Cell suspension was then added on top of poly-D-lysine- and laminin-coated coverslips and sat for 1–2 h at 37°C. Complete DH10 media supplemented with NGF (50 ng/ml) was then added into the vessel. Neurons were allowed to recover overnight at 37°C for the next-day calcium imaging experiment.
Calcium imaging data was collected with a Nikon Eclipse TE 200 microscope. Time series GCaMP6 fluorescence intensity was acquired through the FITC/GFP channel. […] Neurons with GCaMP6 signal rose above 50% of the baseline intensity after compound application were counted as positive responders and the percentage of responding neurons was calculated. […]
(top) and individual (bottom) calcium activity, measured by fluorescence intensity normaliz ed to […]
activity from the recorded neurons is shown in heatmap. […]

O=C1NC(=O)C(c2ccccc2)(c2ccccc2)N1 [Phenytoin]
PRESTO-Tango response (fig. S1), single replicate ([1]; concentration 4.88281e-6 M): 0.1853 and 0.188 and 0.1763 and 0.05734 and 0.2683 and 0.2239
PRESTO-Tango response (fig. S1), single replicate ([1]; concentration 9.76563e-6 M): 0.2008 and 0.1594 and 0.1746 and 0.2158 and 0.02233 and 0.2967
PRESTO-Tango response (fig. S1), single replicate ([1]; concentration 1.95313e-5 M): 0.2906 and 0.2732 and 0.1192 and 0.006784 and 0.3171 and 0.3592
PRESTO-Tango response (fig. S1), single replicate ([1]; concentration 3.90625e-5 M): 0.1519 and 0.183 and 0.2178 and 0.1316 and 0.1884 and 0.2326
PRESTO-Tango response (fig. S1), single replicate ([1]; concentration 7.8125e-5 M): 0.1378 and 0.1891 and 0.1982 and 0.232 and 0.1107 and 0.1825
PRESTO-Tango response (fig. S1), single replicate ([1]; concentration 0.0003125 M): 0.1547 and 0.2414 and 0.1479 and 0.03891 and 0.4024 and 0.1026
PRESTO-Tango response (fig. S1), single replicate ([1]; concentration 0.000625 M): 0.1541 and 0.14 and 0.1288 and 0.1405 and 0.1553 and 0.127
PRESTO-Tango response (fig. S1), single replicate ([1]; concentration 0.0025 M): 0.1159 and 0.09904 and 0.1083 and 0.002223 and 0.1612 and 0.1598
PRESTO-Tango response (fig. S1), single replicate ([1]; concentration 0.005 M): 0.112 and 0.09938 and 0.09678 and 0.03875 and 0.1733 and 0.09617

O=C1NC(c2ccccc2)(c2ccccc2)C(=O)N1COP(=O)(O)O [Fosphenytoin]
EC50 ([2]; WT (S83), Fig. 4E, unit not in the head, taken from Concentration (M) of the sheet and pEC50 [M] of Fig. 4E, read-out: EC50s (each well represents individual experiment)): 7.21e-07 M and 5.46e-06 M and 1.46e-06 M
Calcium mobilization response (Fig. 4D dose-response) ([2]; 5.65e-9 M): -11.5543
calcium mobilization response (Fig. 3E and 3F dose-response) ([2]; 4.12e-6 M): 76.9188
Calcium mobilization response (Fig. 4D dose-response) ([2]; 4.12e-6 M): 76.9188
calcium mobilization response (Fig. 3E and 3F dose-response) ([2]; 1.23e-5 M): 82.4819
Potency at S83- vs L83-MRGPRX4 ([2]; calcium mobilization, compared with S83L (A17)): improved potency at S83-MRGPRX4
Activation of NP1–3 neuron populations [3]: few neurons were activated
PRESTO-Tango response (fig. S1), single replicate ([1]; concentration 1.95e-7 M): 0.2272 and 0.1839 and 0.1708 and 0.08379 and 0.0626 and 0.06306
PRESTO-Tango response (fig. S1), single replicate ([1]; concentration 3.91e-7 M): 0.258 and 0.2297 and 0.204 and 0.07839 and 0.196 and 0.08224
PRESTO-Tango response (fig. S1), single replicate ([1]; concentration 7.81e-7 M): 0.5296 and 0.4272 and 0.4321 and 0.1295 and 0.1604 and 0.1155
PRESTO-Tango response (fig. S1), single replicate ([1]; concentration 1.56e-6 M): 1.193 and 1.025 and 0.8155 and 0.2489 and 0.1773 and 0.193
PRESTO-Tango response (fig. S1), single replicate ([1]; concentration 3.13e-6 M): 2.598 and 2.433 and 2.514 and 0.4404 and 0.5024 and 0.4535
PRESTO-Tango response (fig. S1), single replicate ([1]; concentration 6.25e-6 M): 5.285 and 4.4353 and 4.292 and 0.9622 and 0.8766 and 0.6627
PRESTO-Tango response (fig. S1), single replicate ([1]; concentration 1.25e-5 M): 7.96 and 6.958 and 5.919 and 1.839 and 1.437 and 1.511
PRESTO-Tango response (fig. S1), single replicate ([1]; concentration 2.5e-5 M): 10.7681 and 8.616 and 8.444 and 2.5381 and 2.199 and 2
PRESTO-Tango response (fig. S1), single replicate ([1]; concentration 5e-5 M): 10.7109 and 8.966 and 9.235 and 2.8872 and 2.833 and 2.449
PRESTO-Tango response (fig. S1), single replicate ([1]; concentration 0.0001 M): 9.427 and 8.942 and 7.727 and 3.267 and 2.882 and 2.338
PRESTO-Tango response (fig. S1), single replicate ([1]; concentration 0.0002 M): 8.979 and 8.052 and 6.854 and 2.562 and 2.3992 and 2.255
fig. S7 response (raw signal), concentration-response ([1]; 1.95e-7 M): 22724.6 and 18390.5 and 17083.6 and 8378.77 and 6259.78 and 6305.82 and 12291.8 and 11793.8 and 15486
fig. S7 response (raw signal), concentration-response ([1]; 3.91e-7 M): 25803.9 and 22965.5 and 20401.3 and 7839.11 and 19602.9 and 8224.03 and 24524.9 and 14963.1 and 12930.4
fig. S7 response (raw signal), concentration-response ([1]; 7.81e-7 M): 52955.5 and 42723 and 43213.9 and 12950.5 and 16037.6 and 11551.5 and 30971.1 and 30307.2 and 28437.7
fig. S7 response (raw signal), concentration-response ([1]; 1.56e-6 M): 119282 and 102488 and 81549.3 and 24892.1 and 17734.6 and 19298.5 and 55751 and 73836.3 and 53034.5
fig. S7 response (raw signal), concentration-response ([1]; 3.13e-6 M): 259763 and 243320 and 251368 and 44035.9 and 50243.2 and 45345.4 and 138332 and 159511 and 149195
fig. S7 response (raw signal), concentration-response ([1]; 6.25e-6 M): 528451 and 443530 and 429228 and 96221.6 and 87656.1 and 66266.7 and 291383 and 234158 and 300136
fig. S7 response (raw signal), concentration-response ([1]; 1.25e-5 M): 795954 and 695772 and 591944 and 183925 and 143683 and 151143 and 437126 and 336645 and 507439
fig. S7 response (raw signal), concentration-response ([1]; 2.5e-5 M): 1076811 and 861577 and 844388 and 253810 and 219862 and 200044 and 648692 and 547623 and 531932
fig. S7 response (raw signal), concentration-response ([1]; 5e-5 M): 1071085 and 896572 and 923510 and 288720 and 283304 and 244853 and 667677 and 558954 and 627391
fig. S7 response (raw signal), concentration-response ([1]; 0.0001 M): 942731 and 894246 and 772701 and 326668 and 288202 and 233769 and 534832 and 581310 and 583017
fig. S7 response (raw signal), concentration-response ([1]; 0.0002 M): 897926 and 805208 and 685441 and 256156 and 239920 and 225546 and 318639 and 44935
